Measured values from US12098362B2, “Uses of Daldinia sp. or volatile organic compounds derived therefrom” (THE STATE OF ISRAEL, MINISTRY OF AGRICULTURE & RURAL …, priority 2015, dated 2024).

Columns and labels:
M. javanica J2 larvae = assay: Phenotype of second stage juveniles under a stereomicroscope after exposure; assay type: in vivo, Meloidogyne javanica; details: 0.05 mL/L preloaded to 25 mg of perlite particles; 48 hours at 25° C.
Procedure: FIGS. 20A-D show second stage juveniles' phenotype following exposure to D. concentrica culture, synthetic mixture, and the compound 4-heptanone. The nematodes were exposed to each condition for 48 hours at 25° C. in the dark before visualization. FIG. 20A. Control—non treated nematodes. FIG. 20B. Nematodes exposed to three D. concentrica culture plates (50 mm in diameter with 5 mL growth medium) pre-grown for 4 days. FIG. 20C. Nematodes exposed to 0.25 mL/L of synthetic mixture preloaded to 125 mg of perlite particles. FIG. 20D. Nematodes exposed to 0.05 mL/L of the compound 4-heptanone preloaded to 25 mg of perlite particles. The bar indicates […].
The effects of D. concentrica, synthetic mixture and the pure compound 4-heptanone were also examined visually under a stereomicroscope. The results are presented in FIGS. 20A-D wherein FIG. 20A represents non-treated nematodes; FIG. 20B represents nematodes exposed to three D. concentrica culture plates (50 mm in diameter with 5 mL growth medium) pre-grown for 4 days; FIG. 20C represents nematodes exposed to 0.25 mL/L of synthetic mixture preloaded to 125 mg of perlite particles; FIG. 20D represents nematodes exposed to 0.05 mL/L of the compound 4-heptanone preloaded to 25 mg of perlite particles.

[1] = test system: A. niger, B. cinerea, A. alternata, and P. digitatum; assay: Ability of commercially available VOC compounds to control growth of four test fungi; assay type: cell-based; details: single commercially available compound
Procedure: (§1) All chemical compounds were purchased from Sigma (Rehovot, Israel) and were of the highest purity available. The bioactivity of the mixtures combined on the VOCs identified, was determined as follows: Petri dishes (90 mm, 80 mL air volume) containing 15 mL of media (PDA amended with 12 μg/mL tetracycline) were inoculated (triplicates, 2 plugs each) with the test fungi A. alternata and B. cinerea (in the same plate), P. digitatum and A. niger (in separate plates). A cup of an Eppendorf tube was placed in the middle of the plate to which increasing volumes (0-200 μL) of the mixture was added. Then, the plates were sealed with parafilm and incubated at room temperature for two days before comparing the growth of the test fungi in those plates to control plates in the absence of the mixture. The ability of two mixtures: Mixture A and Mixture B to control other plant pathogenic fungi was determined as described above except that the concentration of the mixture was constant (1 mL/L) and the growth inhibition was estimated after 6 days. The viability of the test fungi after exposure to the mixtures was examined as described for D. concentrica.
(§2) The activity of each chemical component of the mixture was examined separately as described for the mixtures. […]

Aspergillus niger = assay: Chemical mixtures bioactivity test in sealed Petri dish; assay type: cell-based; details: single compound
Procedure: as §1, §2

Penicillium digitatum = assay: as above; assay type: cell-based; details: single compound
Procedure: as §1, §2

CCCC(=O)CCC [Mixture 4-heptanone, 4-heptanone]
nematode phenotype (body shape, viability) (M. javanica J2 larvae): most of the nematodes demonstrated the typical straight body shape with nearly no curved appearance

OCCc1ccccc1 [phenyl ethyl alcohol]
ability to control the growth of A. niger, B. cinerea, A. alternata, and P. digitatum [1]: failed to inhibit fungal growth

methyl-1,4-cyclohexadiene
growth inhibition of A. niger (Aspergillus niger): 10.8% | growth inhibition of P. digitatum (Penicillium digitatum): 3.1%

COc1cc2ccccc2cc1O [3-methoxy-2-naphthol]
ability to control the growth of A. niger, B. cinerea, A. alternata, and P. digitatum [1]: failed to inhibit fungal growth
